The target in this assay is T1, recombinant sEH (Homo sapiens, UniProt P34913).
T1 construct: made in house; host or cells: Sf9 insect cells
T1 sequence (P34913 1-555): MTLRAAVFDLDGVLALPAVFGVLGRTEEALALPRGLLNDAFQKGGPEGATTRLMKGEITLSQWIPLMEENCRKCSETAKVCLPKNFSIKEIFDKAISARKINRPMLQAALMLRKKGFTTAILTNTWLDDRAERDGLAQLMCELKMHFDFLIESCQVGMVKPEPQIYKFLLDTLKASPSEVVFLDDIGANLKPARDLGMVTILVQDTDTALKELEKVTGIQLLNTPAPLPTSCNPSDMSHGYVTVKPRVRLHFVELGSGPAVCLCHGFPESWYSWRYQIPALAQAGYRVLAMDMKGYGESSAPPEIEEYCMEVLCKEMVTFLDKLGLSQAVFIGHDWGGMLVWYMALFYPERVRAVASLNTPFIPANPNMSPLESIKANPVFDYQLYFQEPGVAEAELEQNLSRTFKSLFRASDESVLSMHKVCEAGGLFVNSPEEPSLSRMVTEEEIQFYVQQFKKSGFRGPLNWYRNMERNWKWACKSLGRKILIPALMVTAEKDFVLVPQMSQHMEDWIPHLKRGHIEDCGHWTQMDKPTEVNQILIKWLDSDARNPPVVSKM
Put plainly: biochemical screening assay for inhibition of soluble epoxide hydrolase (fluorometric, Phome substrate). The method in brief: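 Reading fluorescence before substrate addition and after completion corrected for autofluorescence. Reaction: 5 μM Phome, 2 nM recombinant human sEH (Sf9-expressed), compound 0.0001–10 μM, 25 mM Hepes with 0.01% albumin, 15 min pre-incubation then 60 min at 30 °C; IC50 derived from % inhibition.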

Consider `Cc1ncccc1O[C@H]1CO[C@H]2[C@@H]1OC[C@@H]2NC(=O)NC1CC2CC1C1CCCC21` (stereo partly drawn) [Example 262, 1-[(3S,3aR,6S,6aS)-6-(2-Methyl-pyridin-3-yloxy)-hexahydro-furo[3,2-b]furan-3-yl]-3-(octahydro-4,7-methano-inden-5-yl)-urea], for which the IC50 (in general, the concentration that inhibits the measured activity by half) is 2 nM.
On to `Cc1ncccc1O[C@H]1CO[C@H]2[C@@H]1OC[C@@H]2NC(=O)NC1CC(C)CCC1C(C)C` (stereo partly drawn) [Example 263, 1-(2-Isopropyl-5-methyl-cyclohexyl)-3-[(3S,3aR,6S,6aS)-6-(2-methyl-pyridin-3-yloxy)-hexahydro-furo[3,2-b]furan-3-yl]-urea], for which the IC50 was 25 nM.
Consider `Cc1ncccc1O[C@H]1CO[C@H]2[C@@H]1OC[C@@H]2NC(=O)NC1CCC(c2ccccc2)CC1` (stereo partly drawn) [Example 264, 1-[(3S,3aR,6S,6aS)-6-(2-Methyl-pyridin-3-yloxy)-hexahydro-furo[3,2-b]furan-3-yl]-3-(4-phenyl-cyclohexyl)-urea], for which the half-maximal inhibitory concentration (IC50) was 6 nM.
Under `Cc1ncccc1O[C@H]1CO[C@H]2[C@@H]1OC[C@@H]2NC(=O)N[C@@H]1CCCC[C@H]1C(C)(C)C` [Example 265, 1-((1R,2S)-2-tert-Butyl-cyclohexyl)-3-[(3S,3aR,6S,6aS)-6-(2-methyl-pyridin-3-yloxy)-hexahydro-furo[3,2-b]furan-3-yl]-urea] stands 111 nM.
For the compound `Cc1ncccc1O[C@H]1CO[C@H]2[C@@H]1OC[C@@H]2NC(=O)NC1CCC2(CC1)OCCO2` [Example 266, 1-(1,4-Dioxa-spiro[4.5]dec-8-yl)-3-[(3S,3aR,6S,6aS)-6-(2-methyl-pyridin-3-yloxy)-hexahydro-furo[3,2-b]furan-3-yl]-urea], the IC50 stood at 16 nM.
With `Cc1ncccc1O[C@H]1CO[C@H]2[C@@H]1OC[C@@H]2NC(=O)N[C@H]1CC[C@H](C)CC1` [Example 267, 1-(trans-4-Methyl-cyclohexyl)-3-[(3S,3aR,6S,6aS)-6-(2-methyl-pyridin-3-yloxy)-hexahydro-furo[3,2-b]furan-3-yl]-urea] the figure was 2 nM; with `Cc1ncccc1O[C@H]1CO[C@H]2[C@@H]1OC[C@@H]2NC(=O)NC1CCC(C)(C)CC1` [Example 268, 1-(4,4-Dimethyl-cyclohexyl)-3-[(3S,3aR,6S,6aS)-6-(2-methyl-pyridin-3-yloxy)-hexahydro-furo[3,2-b]furan-3-yl]-urea], 2 nM.
Under `Cc1ncccc1O[C@H]1CO[C@H]2[C@@H]1OC[C@@H]2NC(=O)NC1C(C)CCCC1C` (stereo partly drawn) [Example 269, 1-(2,6-Dimethyl-cyclohexyl)-3-[(3S,3aR,6S,6aS)-6-(2-methyl-pyridin-3-yloxy)-hexahydro-furo[3,2-b]furan-3-yl]-urea] stands 2 nM.
Regarding `Cc1ncccc1O[C@H]1CO[C@H]2[C@@H]1OC[C@@H]2NC(=O)NC1CCCCC1(C)C` (stereo partly drawn) [Example 270, 1-(2,2-Dimethyl-cyclohexyl)-3-[(3S,3aR,6S,6aS)-6-(2-methyl-pyridin-3-yloxy)-hexahydro-furo[3,2-b]furan-3-yl]-urea], the IC50 came out at 16 nM.
Turning to `Cc1ncccc1O[C@H]1CO[C@H]2[C@@H]1OC[C@@H]2NC(=O)NC1CCCCC1C(C)(C)C` (stereo partly drawn) [Example 271, 1-(2-tert-Butyl-cyclohexyl)-3-[(3S,3aR,6S,6aS)-6-(2-methyl-pyridin-3-yloxy)-hexahydro-furo[3,2-b]furan-3-yl]-urea], the IC50 came out at 99 nM.
Under `Cc1ncccc1O[C@H]1CO[C@H]2[C@@H]1OC[C@@H]2NC(=O)N[C@H]1CC[C@@H](C)CC1` [Example 272, 1-(cis-4-Methyl-cyclohexyl)-3-[(3S,3aR,6S,6aS)-6-(2-methyl-pyridin-3-yloxy)-hexahydro-furo[3,2-b]furan-3-yl]-urea] stands 1 nM.
Under `Cc1ncccc1O[C@H]1CO[C@H]2[C@@H]1OC[C@@H]2NC(=O)NC1CC(C)(C)CC(C)(C)C1` [Example 273, 1-[(3S,3aR,6S,6aS)-6-(2-Methyl-pyridin-3-yloxy)-hexahydro-furo[3,2-b]furan-3-yl]-3-(3,3,5,5-tetramethyl-cyclohexyl)-urea] stands 1 nM; under `Cc1ncccc1O[C@H]1CO[C@H]2[C@@H]1OC[C@@H]2NC(=O)N[C@@H]1CCCC[C@H]1F` [Example 274, 1-((1R,2R)-2-Fluoro-cyclohexyl)-3-[(3S,3aR,6S,6aS)-6-(2-methyl-pyridin-3-yloxy)-hexahydro-furo[3,2-b]furan-3-yl]-urea], 14 nM; under `Cc1ncccc1O[C@H]1CO[C@H]2[C@@H]1OC[C@@H]2NC(=O)NC1CCCCC1C(F)(F)F` (stereo partly drawn) [Example 275, 1-[(3S,3aR,6S,6aS)-6-(2-Methyl-pyridin-3-yloxy)-hexahydro-furo[3,2-b]furan-3-yl]-3-(2-trifluoromethyl-cyclohexyl)-urea], 19 nM.
`Cc1ncccc1O[C@H]1CO[C@H]2[C@@H]1OC[C@@H]2NC(=O)NC1CCC(C)CC1C` (stereo partly drawn) [Example 276, 1-(2,4-Dimethyl-cyclohexyl)-3-[(3S,3aR,6S,6aS)-6-(2-methyl-pyridin-3-yloxy)-hexahydro-furo[3,2-b]furan-3-yl]-urea]: the IC50 was found to be 1 nM.
With `Cc1ncccc1O[C@H]1CO[C@H]2[C@@H]1OC[C@@H]2NC(=O)NC1CCCCC1(F)F` (stereo partly drawn) [Example 277, 1-(2,2-Difluoro-cyclohexyl)-3-[(3S,3aR,6S,6aS)-6-(2-methyl-pyridin-3-yloxy)-hexahydro-furo[3,2-b]furan-3-yl]-urea] the figure was 2 nM; with `Cc1ncccc1O[C@H]1CO[C@H]2[C@@H]1OC[C@@H]2NC(=O)N1CCCC(F)(F)C1` [Example 278, 3,3-Difluoro-piperidine-1-carboxylic acid [(3S,3aR,6S,6aS)-6-(2-methyl-pyridin-3-yloxy)-hexahydro-furo[3,2-b]furan-3-yl]-amide], 924 nM; with `Cc1ncccc1O[C@H]1CO[C@H]2[C@@H]1OC[C@@H]2NC(=O)NCc1cc(F)ccc1OC(F)(F)F` [Example 279, 1-(5-Fluoro-2-trifluoromethoxy-benzyl)-3-[(3S,3aR,6S,6aS)-6-(2-methyl-pyridin-3-yloxy)-hexahydro-furo[3,2-b]furan-3-yl]-urea], 1 nM.
Regarding `Cc1ncccc1O[C@H]1CO[C@H]2[C@@H]1OC[C@@H]2NC(=O)NC1CCC(C(C)(C)O)CC1` (stereo partly drawn) [Example 280, 1-[4-(1-Hydroxy-1-methyl-ethyl)-cyclohexyl]-3-[(3S,3aR,6S,6aS)-6-(2-methyl-pyridin-3-yloxy)-hexa-hydro-furo[3,2-b]furan-3-yl]-urea], the IC50 is 12 nM.
As to `O=C(NC1CCCCC1)N[C@H]1CO[C@H]2[C@@H]1OC[C@@H]2C#Cc1ccc2c(c1)OCO2` [Example 281, 1-((3S,3aR,6S,6aR)-6-benzo[1,3]dioxol-5-ylethynyl-hexahydro-furo[3,2-b]furan-3-yl)-3-cyclohexyl-urea], the half-maximal inhibitory concentration (IC50) was determined as 75 nM.
As for `O=C(NC1CCCCC1)NC1COC2C(C#Cc3ccccc3)COC12` [Example 282, 1-Cyclohexyl-3-((3S,3aR,6S,-6aR)-6-phenylethynyl-hexa-hydro-furo[3,2-b]furan-3-yl)-urea], the IC50 worked out at 12 nM.
On to `CCCCOc1ccc(NC(=O)NC2COC3C(C#Cc4ccccc4)COC23)cc1` [Example 283, 1-(4-Butoxy-phenyl)-3-[(3S,3aR,6R)-6-((S)-phenylethynyl)-hexahydro-furo[3,2-b]furan-3-yl]-urea], for which the IC50 was 70 nM.
With `COc1cc(NC(=O)N[C@H]2CO[C@@H]3[C@@H]2OC[C@H]3C#Cc2ccccc2)cc(OC)c1` [Example 284, 1-(3,5-Dimethoxy-phenyl)-3-[(3S,3aR,6R)-6-((S)-phenylethynyl)-hexahydro-furo[3,2-b]furan-3-yl]-urea] the figure was 71 nM; with `Cc1cc(C)cc(NC(=O)NC2COC3C(C#Cc4ccccc4)COC23)c1` [Example 285, 1-(3,5-Dimethyl-phenyl)-3-[(3S,3aR,6R)-6-((S)-phenylethynyl)-hexahydro-furo[3,2-b]furan-3-yl]-urea], 21 nM.
With `O=C(Nc1ccccc1)N[C@H]1CO[C@@H]2[C@@H]1OC[C@H]2C#Cc1ccccc1` [Example 286, 1-Phenyl-3-[(3S,3aR,6R)-6-((S)-phenylethynyl)-hexa-hydro-furo[3,2-b]furan-3-yl]-urea] the figure was 227 nM.
Under `O=C(Nc1ccc(OCc2ccccc2)cc1)NC1COC2C(C#Cc3ccccc3)COC12` [Example 287, 1-(4-Benzyloxy-phenyl)-3-[(3S,3aR,6R)-6-((S)-phenylethynyl)-hexahydro-furo[3,2-b]furan-3-yl]-urea] stands 82 nM.
Turning to `O=C(NCc1ccc(F)cc1)N[C@H]1CO[C@@H]2[C@@H]1OC[C@H]2C#Cc1ccccc1` [Example 288, 1-(4-Fluoro-benzyl)-3-[(3S,3aR,6R)-6-((S)-phenylethynyl)-hexahydro-furo[3,2-b]furan-3-yl]-urea], the IC50 turned out to be 147 nM.
Under `Cc1cccc(NC(=O)N[C@H]2CO[C@@H]3[C@@H]2OC[C@H]3C#Cc2ccccc2)c1` [Example 289, 1-[(3S,3aR,6R)-6-((S)-Phenylethynyl)-hexahydro-furo[3,2-b]furan-3-yl]-3-m-tolyl-urea] stands 35 nM; under `O=C(Nc1ccc(Cl)c(Cl)c1)NC1COC2C(C#Cc3ccccc3)COC12` [Example 290, 1-(3,4-Dichloro-phenyl)-3-[(3S,3aR,6R)-6-((S)-phenylethynyl)-hexahydro-furo[3,2-b]furan-3-yl]-urea], 13 nM.
